Blank lines part the entries; values can stand above or below the compound they belong to.
Key:
SLC35E4 = target: T1, SLC35E4 (Homo sapiens, UniProt Q6ICL7); assay: Uptake ratio screen, SLC35E4-overexpressing HEK293 over empty vector cells; format: cell-based; parameters: by amplifying the entire gene-of-interest within the HEK293 genome via a long-range PCR; details: 2.5 μM, 2 min
T1 sequence (Q6ICL7 1-350): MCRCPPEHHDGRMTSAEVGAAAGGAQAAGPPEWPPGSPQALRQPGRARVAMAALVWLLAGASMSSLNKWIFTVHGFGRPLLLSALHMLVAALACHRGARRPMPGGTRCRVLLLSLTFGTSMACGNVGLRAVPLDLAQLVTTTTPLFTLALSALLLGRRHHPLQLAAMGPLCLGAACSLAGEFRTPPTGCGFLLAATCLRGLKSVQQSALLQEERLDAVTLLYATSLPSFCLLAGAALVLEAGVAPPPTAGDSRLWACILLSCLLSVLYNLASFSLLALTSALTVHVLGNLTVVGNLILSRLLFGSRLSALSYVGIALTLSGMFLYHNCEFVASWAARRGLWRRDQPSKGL
Experimental: (§1) Typically discussed substrates of the proton organic-cation antiporter ([14]) are highlighted in dark green in Figure 1.
(§2) In preparation for transport experiments, 24-well plates were pre-coated with poly-D-lysine (Sigma-Aldrich) and 300,000 cells were plated per well and incubated for 48 h. Firstly, the 24-well plate was placed on a heating plate at 37 °C, and the cells were washed with 37 °C HBSS^+ buffer (Hank’s balanced salt solution supplemented with 10 mM Hepes and adjusted to pH 7.4; Thermo Fisher Scientific). The substance-of-interest, which was diluted in 37 °C HBSS^+ to a desired concentration, was added to the cells for exactly 2 min. […] The uptake was stopped with ice-cold HBSS^+, and the 24-well plate was removed from the heating plate. The cells were washed twice with the cold HBSS^+ before they were lysed for 15 min with 80% (v/v) acetonitrile containing the respective internal standard for mass spectrometry. For variations in seeded cell numbers between the cell lines, several wells were lysed in RIPA buffer and used for total protein quantification using a bicinchoninic assay ([74]) and bovine serum albumin as calibration.
(§3) The intracellular drug concentrations after transport experiments were analyzed by high-performance liquid chromatography coupled to tandem mass spectrometry analysis. The HPLC consisted of a Shimadzu Nexera HPLC System with a SIL-30AC autosampler, a LC-30AD pump, a CTO-20AC column oven, and a CBM-20A controller (Shimadzu). The reverse-phase chromatography of compounds was accomplished with a Brownlee SPP RP-Amide column with 4.6 × 100 mm inner dimensions, a particle size of 2.7 μm, and a preceding Phenomenex C-18 guard column. […] After separation, the detection of substances was performed with an API 4000 tandem mass spectrometer (AB SCIEX, https://sciex.com/support/software-support/software-downloads), followed by quantification of results with the Analyst software (AB SCIEX, version 1.6.2). […]
(§4) Transport-mediated net uptake was determined as fold-increase of transporter-overexpressing cells over empty vector–transfected control cells.

SLC38A10 [1] = target: T2, SLC38A10 (Homo sapiens, UniProt Q9HBR0); assay: Uptake ratio screen, SLC38A10-overexpressing HEK293 over empty vector cells; format: cell-based; parameters: by amplifying the entire gene-of-interest within the HEK293 genome via a long-range PCR; details: 2.5 μM, 2 min
T2 sequence (Q9HBR0 whole entry): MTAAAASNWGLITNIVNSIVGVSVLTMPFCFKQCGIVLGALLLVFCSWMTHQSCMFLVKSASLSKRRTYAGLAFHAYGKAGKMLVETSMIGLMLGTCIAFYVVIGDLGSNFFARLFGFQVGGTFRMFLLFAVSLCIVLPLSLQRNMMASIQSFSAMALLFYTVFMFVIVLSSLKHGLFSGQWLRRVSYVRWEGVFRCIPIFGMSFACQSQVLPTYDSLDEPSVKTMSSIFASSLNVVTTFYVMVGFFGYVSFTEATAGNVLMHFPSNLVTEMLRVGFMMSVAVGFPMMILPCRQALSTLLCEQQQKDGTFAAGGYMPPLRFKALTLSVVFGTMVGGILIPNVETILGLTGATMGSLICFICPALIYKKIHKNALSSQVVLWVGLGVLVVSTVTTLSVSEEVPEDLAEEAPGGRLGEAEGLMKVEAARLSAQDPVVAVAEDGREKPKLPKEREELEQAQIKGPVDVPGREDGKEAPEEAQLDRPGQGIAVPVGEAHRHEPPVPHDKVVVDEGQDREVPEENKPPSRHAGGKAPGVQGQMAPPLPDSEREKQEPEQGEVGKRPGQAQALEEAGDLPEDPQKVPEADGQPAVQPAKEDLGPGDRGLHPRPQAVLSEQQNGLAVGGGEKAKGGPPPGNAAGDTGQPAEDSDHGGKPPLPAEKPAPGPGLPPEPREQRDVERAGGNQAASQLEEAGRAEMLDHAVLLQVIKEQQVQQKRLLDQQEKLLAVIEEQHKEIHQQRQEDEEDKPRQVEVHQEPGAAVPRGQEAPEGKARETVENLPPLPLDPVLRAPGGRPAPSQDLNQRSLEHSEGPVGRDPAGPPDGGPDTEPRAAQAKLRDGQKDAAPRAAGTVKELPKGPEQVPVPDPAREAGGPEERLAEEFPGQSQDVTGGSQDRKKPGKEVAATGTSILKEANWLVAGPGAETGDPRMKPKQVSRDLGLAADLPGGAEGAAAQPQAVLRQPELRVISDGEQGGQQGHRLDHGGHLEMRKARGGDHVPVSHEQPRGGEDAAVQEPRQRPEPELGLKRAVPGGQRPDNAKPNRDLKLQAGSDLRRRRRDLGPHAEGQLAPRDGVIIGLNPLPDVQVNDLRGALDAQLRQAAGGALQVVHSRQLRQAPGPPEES
Experimental: as §1
In preparation for transport experiments, 24-well plates were pre-coated with poly-D-lysine (Sigma-Aldrich) and 300,000 cells were plated per well and incubated for 48 h. Firstly, the 24-well plate was placed on a heating plate at 37 °C, and the cells were washed with 37 °C HBSS^+ buffer (Hank’s balanced salt solution supplemented with 10 mM Hepes and adjusted to pH 7.4; Thermo Fisher Scientific). The substance-of-interest, which was diluted in 37 °C HBSS^+ to a desired concentration, was added to the cells for exactly 2 min. […] For variations in seeded cell numbers between the cell lines, several wells were lysed in RIPA buffer and used for total protein quantification using a bicinchoninic assay ([74]) and bovine serum albumin as calibration.
The intracellular drug concentrations after transport experiments were analyzed by high-performance liquid chromatography coupled to tandem mass spectrometry analysis. […] After separation, the detection of substances was performed with an API 4000 tandem mass spectrometer (AB SCIEX, https://sciex.com/support/software-support/software-downloads), followed by quantification of results with the Analyst software (AB SCIEX, version 1.6.2). […]

SLC22A15 = target: T3, SLC22A15 (Homo sapiens, UniProt Q8IZD6); assay: Uptake ratio screen, SLC22A15-overexpressing HEK293 over empty vector cells; format: cell-based; details: 2.5 μM (nicotine 10 μM), 2 min
T3 construct: by amplifying the entire gene-of-interest within the HEK293 genome via a long-range PCR
T3 sequence (Q8IZD6 whole entry): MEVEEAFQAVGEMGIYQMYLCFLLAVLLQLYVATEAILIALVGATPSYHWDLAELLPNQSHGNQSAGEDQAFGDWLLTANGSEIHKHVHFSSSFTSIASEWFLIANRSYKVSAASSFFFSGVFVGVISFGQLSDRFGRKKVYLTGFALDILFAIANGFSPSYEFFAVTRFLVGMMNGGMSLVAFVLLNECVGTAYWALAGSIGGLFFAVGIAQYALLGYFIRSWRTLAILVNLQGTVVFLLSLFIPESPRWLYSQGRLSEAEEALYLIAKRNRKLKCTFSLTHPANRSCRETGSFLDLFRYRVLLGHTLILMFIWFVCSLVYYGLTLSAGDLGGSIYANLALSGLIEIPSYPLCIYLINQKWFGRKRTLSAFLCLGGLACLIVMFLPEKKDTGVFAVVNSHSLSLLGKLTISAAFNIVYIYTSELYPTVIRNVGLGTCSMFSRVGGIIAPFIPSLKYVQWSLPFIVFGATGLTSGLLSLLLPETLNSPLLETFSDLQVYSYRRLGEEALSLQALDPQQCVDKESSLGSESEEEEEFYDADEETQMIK
Experimental: as §1, §2
(§5) The intracellular drug concentrations after transport experiments were analyzed by high-performance liquid chromatography coupled to tandem mass spectrometry analysis. The HPLC consisted of a Shimadzu Nexera HPLC System with a SIL-30AC autosampler, a LC-30AD pump, a CTO-20AC column oven, and a CBM-20A controller (Shimadzu). The reverse-phase chromatography of compounds was accomplished with a Brownlee SPP RP-Amide column with 4.6 × 100 mm inner dimensions, a particle size of 2.7 μm, and a preceding Phenomenex C-18 guard column. The mobile phase was composed of an organic additive with acetonitrile:methanol 6:1 (v/v) in total concentrations between 3% and 50% (v/v) and 0.1% (v/v) formic acid in the aqueous component of the eluent. During separation, the column oven was held at 40 °C and the mobile phase was maintained at a flow rate of 300 or 400 μl/min. After separation, the detection of substances was performed with an API 4000 tandem mass spectrometer (AB SCIEX, https://sciex.com/support/software-support/software-downloads), followed by quantification of results with the Analyst software (AB SCIEX, version 1.6.2). The composition of chromatographic conditions, as well as detailed mass spectrometric detection parameters, are listed in Table S5.
as §4

SLC35F2 = target: T4, SLC35F2 (Homo sapiens, UniProt Q8IXU6)
T4 sequence (Q8IXU6 1-374): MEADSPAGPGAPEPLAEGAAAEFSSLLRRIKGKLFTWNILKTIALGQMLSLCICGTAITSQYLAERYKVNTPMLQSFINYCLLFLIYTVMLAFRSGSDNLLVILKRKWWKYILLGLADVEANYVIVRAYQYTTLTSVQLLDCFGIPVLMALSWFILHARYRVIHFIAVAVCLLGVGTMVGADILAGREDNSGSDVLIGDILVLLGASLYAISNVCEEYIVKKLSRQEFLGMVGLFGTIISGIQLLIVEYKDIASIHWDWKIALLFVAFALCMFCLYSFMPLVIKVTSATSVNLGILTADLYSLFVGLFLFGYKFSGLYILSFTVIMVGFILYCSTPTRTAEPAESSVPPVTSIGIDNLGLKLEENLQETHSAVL

SLC38A10 [2] = target: T2, SLC38A10
SLC35G3 [3] = target: T5, SLC35G3 (Homo sapiens, UniProt Q8N808)
T5 sequence (Q8N808 whole entry): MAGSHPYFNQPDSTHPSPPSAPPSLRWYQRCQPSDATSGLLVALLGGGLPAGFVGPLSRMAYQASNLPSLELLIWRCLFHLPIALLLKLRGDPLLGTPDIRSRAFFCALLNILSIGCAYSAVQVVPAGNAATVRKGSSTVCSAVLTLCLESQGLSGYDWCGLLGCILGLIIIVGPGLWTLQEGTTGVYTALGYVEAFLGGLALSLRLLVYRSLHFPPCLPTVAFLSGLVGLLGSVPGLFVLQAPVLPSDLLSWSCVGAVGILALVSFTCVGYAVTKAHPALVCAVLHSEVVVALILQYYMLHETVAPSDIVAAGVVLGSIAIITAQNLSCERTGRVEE

SLC35G3 [4] = target: T5, SLC35G3; assay: Uptake ratio screen, SLC35G3-overexpressing HEK293 over empty vector cells; format: cell-based; parameters: by amplifying the entire gene-of-interest within the HEK293 genome via a long-range PCR; details: 2.5 μM substrate, 2 min, HEK293
SLC35F4 = target: T6, SLC35F4 (Homo sapiens, UniProt A4IF30); assay: Uptake ratio screen, SLC35F4-overexpressing HEK293 over empty vector cells; format: cell-based; parameters: by amplifying the entire gene-of-interest within the HEK293 genome via a long-range PCR; details: 2.5 μM, 2 min
T6 sequence (A4IF30 1-521): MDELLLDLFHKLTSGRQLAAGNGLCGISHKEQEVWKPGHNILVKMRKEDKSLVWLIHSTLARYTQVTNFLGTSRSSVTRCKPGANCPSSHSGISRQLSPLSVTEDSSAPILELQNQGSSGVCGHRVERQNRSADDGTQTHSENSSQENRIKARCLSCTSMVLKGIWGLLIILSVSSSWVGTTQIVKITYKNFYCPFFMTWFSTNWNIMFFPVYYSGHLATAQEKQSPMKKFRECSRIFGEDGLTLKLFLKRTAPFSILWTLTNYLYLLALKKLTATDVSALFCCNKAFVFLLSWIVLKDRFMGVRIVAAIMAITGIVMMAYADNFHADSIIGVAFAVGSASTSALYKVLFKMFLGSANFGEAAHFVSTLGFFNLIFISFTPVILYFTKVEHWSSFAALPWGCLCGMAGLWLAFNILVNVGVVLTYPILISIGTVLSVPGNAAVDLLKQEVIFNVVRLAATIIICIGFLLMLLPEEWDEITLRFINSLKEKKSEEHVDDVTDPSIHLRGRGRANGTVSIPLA
Experimental: as §1, §2, §5, §4

SLC35F3 = SLC35F3 (Homo sapiens, UniProt Q8IY50); details: 2.5 μM, 2 min, HEK293
Sequence of SLC35F3 (Q8IY50 whole entry): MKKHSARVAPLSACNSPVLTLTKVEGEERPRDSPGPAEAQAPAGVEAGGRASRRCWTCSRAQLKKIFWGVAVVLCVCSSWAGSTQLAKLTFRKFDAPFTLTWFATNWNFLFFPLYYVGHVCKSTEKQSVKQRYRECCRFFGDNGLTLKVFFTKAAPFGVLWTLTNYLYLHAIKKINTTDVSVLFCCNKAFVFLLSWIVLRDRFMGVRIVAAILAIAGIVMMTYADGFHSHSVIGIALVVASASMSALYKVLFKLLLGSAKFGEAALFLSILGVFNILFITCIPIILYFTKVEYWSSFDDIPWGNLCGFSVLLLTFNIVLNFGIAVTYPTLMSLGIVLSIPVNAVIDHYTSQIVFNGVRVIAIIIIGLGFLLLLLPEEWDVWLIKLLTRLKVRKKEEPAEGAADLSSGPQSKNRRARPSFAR
Experimental: as §1, §2, §5, §4

SLC35E2A [5] = target: T7, SLC35E2A (Homo sapiens, UniProt P0CK97)
T7 sequence (P0CK97 whole entry): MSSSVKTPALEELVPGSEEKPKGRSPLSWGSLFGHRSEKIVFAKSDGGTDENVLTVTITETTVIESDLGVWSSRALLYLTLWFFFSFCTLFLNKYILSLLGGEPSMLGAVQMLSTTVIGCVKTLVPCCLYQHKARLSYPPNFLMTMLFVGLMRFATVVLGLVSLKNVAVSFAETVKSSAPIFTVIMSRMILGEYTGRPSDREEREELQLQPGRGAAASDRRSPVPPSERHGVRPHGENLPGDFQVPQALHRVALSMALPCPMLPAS

SLC35E2A [6] = target: T7, SLC35E2A; assay: Uptake ratio screen, SLC35E2A-overexpressing HEK293 over empty vector cells; format: cell-based; parameters: by amplifying the entire gene-of-interest within the HEK293 genome via a long-range PCR; details: 2.5 μM, 2 min
Experimental: as §1, §2, §3, §4

Structure (SMILES): N[C@@H](CCC(=O)O)C(=O)O [glutamic acid]
Uptake by SLC35E4 (in words) (SLC35E4): minor
Uptake by SLC38A10 compared with empty-vector-transfected cells (factor) (SLC38A10 [1]): 1.4

Structure (SMILES): Clc1cccc(Cl)c1N=C1NCCN1 [Clonidine]
Uptake by SLC22A15 (in words) (SLC22A15): significantly increased the uptake
Vmax (±SEM) (SLC35F2; SLC35F2, HEK293, net uptake over empty vector cells): 304 (±57.7) pmol × mg protein^-1 × min^-1
Clint (±SEM) (SLC35F2; human): 2.06 (±1.62) μl × mg protein^-1 × min^-1
Km (SLC35F2; read-out: KM (±SEM), SLC35F2, HEK293, net uptake over empty vector cells): 147 µM
Clint (±SEM) (SLC38A10 [2]): 2.64 (±3.0) μl × mg protein^-1 × min^-1
Clint (±SEM) (SLC35G3 [3]): 4.85 (±3.17) μl × mg protein^-1 × min^-1
Uptake data for SLC35G3, mean value (fold-increase over empty vector control) (SLC35G3 [4]): 1.54

Uptake by SLC35F4 (in words) (SLC35F4): no enhanced thiamine transport
Uptake data for SLC35G3, mean value (fold-increase over empty vector control) (SLC35G3 [4]): 0.90
Uptake by SLC35F3 (in words) (SLC35F3): no enhanced thiamine uptake
Structure (SMILES): Cc1ncc(C[n+]2csc(CCO)c2C)c(N)n1 [Thiamine]

Clint (±SEM) (SLC35E2A [5]): 1.79 (±1.06) μl × mg protein^-1 × min^-1
Uptake by SLC22A15 (in words) (SLC22A15): significantly increased the uptake
Uptake by SLC35E2A (in words) (SLC35E2A [6]): relatively high activity
Uptake data for SLC35G3, mean value (fold-increase over empty vector control) (SLC35G3 [4]): 1.60
Structure (SMILES): c1cnc2cc3c(cc2n1)[C@@H]1CNC[C@H]3C1 [Varenicline]

From article PMC11406361, “Several orphan solute carriers functionally identified as organic cation transporters: Substrates specificity compared with known cation transporters” (The Journal of Biological Chemistry, 2024)
